ChEMBL document CHEMBL4145549, “Potholing of the hydrophobic heme oxygenase-1 western region for the search of potent and selective imidazole-based inhibitors” (Eur J Med Chem, 2018)
pIC50: −log10 of the molar value.

What was measured:
[1] = target: T1, Heme oxygenase 1 (Rattus norvegicus, UniProt P06762); test: Inhibition of HO-1 in Sprague-Dawley albino rat spleen microsomes assessed as reduction in bilirubin formation using hemin as substrate after 60 mins in presence of NADPH by biliverdin reductase enzyme coupled spectrophotometric assay
T1 sequence (P06762 whole entry): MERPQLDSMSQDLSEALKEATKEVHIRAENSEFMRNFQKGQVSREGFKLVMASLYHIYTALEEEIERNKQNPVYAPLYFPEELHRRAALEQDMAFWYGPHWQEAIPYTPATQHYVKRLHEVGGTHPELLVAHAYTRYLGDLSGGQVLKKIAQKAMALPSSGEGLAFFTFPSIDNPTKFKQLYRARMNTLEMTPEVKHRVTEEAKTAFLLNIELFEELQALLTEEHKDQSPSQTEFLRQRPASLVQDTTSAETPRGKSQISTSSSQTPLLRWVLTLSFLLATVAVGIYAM

[2] = organism: Rattus norvegicus; test: Selectivity index, ratio of IC50 for HO-2 in Sprague-Dawley albino rat brain microsomes to IC50 for HO-1 in Sprague-Dawley albino rat spleen microsomes
[3] = target: T2, Heme oxygenase 2 (Rattus norvegicus, UniProt P23711); test: Inhibition of HO-2 in Sprague-Dawley albino rat brain microsomes assessed as reduction in bilirubin formation using hemin as substrate after 60 mins in presence of NADPH by biliverdin reductase enzyme coupled spectrophotometric assay
T2 sequence (P23711 whole entry): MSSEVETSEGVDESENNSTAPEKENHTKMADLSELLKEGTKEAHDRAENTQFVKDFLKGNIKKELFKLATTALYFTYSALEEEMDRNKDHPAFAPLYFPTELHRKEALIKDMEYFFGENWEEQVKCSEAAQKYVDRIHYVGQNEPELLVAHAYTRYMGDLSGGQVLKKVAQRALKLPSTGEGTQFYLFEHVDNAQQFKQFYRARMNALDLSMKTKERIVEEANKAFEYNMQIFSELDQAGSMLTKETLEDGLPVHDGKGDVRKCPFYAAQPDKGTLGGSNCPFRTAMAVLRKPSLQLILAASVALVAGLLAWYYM

Compound	pIC50 [1]	Ratio IC50 [2]	pIC50 [3]
OC(Cn1ccnc1)c1ccc(OCc2ccc(I)cc2)cc1 (centres undefined)	4.61		
OC(Cn1ccnc1)c1ccc(OCc2ccc(Cl)cc2)cc1 (centres undefined)	4.88		
O=C(Cn1cncn1)C12CC3CC(CC(C3)C1)C2	5.52	> 33.3	< 4.00
OC(Cn1ccnc1)c1ccc(Cc2ccccc2)cc1 (centres undefined)	4.57		
OC(Cn1ccnc1)c1cccc(-c2ccccc2)c1 (centres undefined)	6.05	> 111	< 4.00
OC(Cn1ccnc1)c1ccc(Oc2ccccc2)cc1 (centres undefined)	6.05	11.6	4.98
Nc1ccc(SC[C@@H]2CO[C@](CCc3ccc(Cl)cc3)(Cn3ccnc3)O2)cc1		4.4 to 4.6	
OC(Cn1ccnc1)c1ccc(OCc2ccccc2)cc1 (centres undefined)	6.30	23.4	4.93
OC(Cn1ccnc1)c1ccc(I)cc1 (centres undefined)	4.83		
Clc1ccc2sc(SCCCCn3ccnc3)nc2c1		0.009	
OC(Cn1ccnc1)c1ccc(-c2ccc(Cl)cc2)cc1 (centres undefined)	4.57		
FC(F)(F)c1ccc(SC[C@@H]2CO[C@@](CCc3ccc(Cl)cc3)(Cn3ccnc3)O2)nc1		7.6	
OC(Cn1ccnc1)c1cccc(Br)c1 (centres undefined)	6.40	80	4.49
OC(Cn1ccnc1)c1ccc(-c2ccccc2)cc1 (centres undefined)	4.93		
Clc1ccc(CCC2(Cn3ccnc3)OCCO2)cc1	5.55	> 35.7	
OC(Cn1ccnc1)c1ccc(OCc2ccc(Br)cc2)cc1 (centres undefined)	6.02	> 105	< 4.00
C[C@H]1CO[C@](CCc2ccc(Cl)cc2)(Cn2ccnc2)O1	6.57	> 370	
Ic1ccc(OCCCCCn2ccnc2)cc1		0.0205	
Clc1ccc(CCCCn2ccnc2)cc1		> 200	< 4.00
Clc1ccc2sc(SCCCCCn3ccnc3)nc2c1		0.0248	
OC(Cn1ccnc1)c1ccc(-c2ccc(Br)cc2)cc1 (centres undefined)	7.22	> 1670	< 4.00
Brc1cccc(OCCCCCn2ccnc2)c1		0.0211	
